Among the data in ChEMBL document CHEMBL1128274, “6-Aminoquinolones: a new class of quinolone antibacterials?” (1995) are MIC values, retold here.

In brackets after ≈: the same amount, converted by molar mass.

The term MIC denotes the least concentration at which growth counts as inhibited.

In the first test the test system is Acinetobacter calcoaceticus. The test can be described thus: Tested in vitro for inhibitory activity against gram negative bacteria Acinetobacter calcoaceticus OSMPV 113 strain. Type of test: functional.
Turning to `NCCSc1cc2c(cc1N)c(=O)c(C(=O)O)cn2C1CC1`, the MIC was 128 µg/mL (≈ 401 µM).

Turning to `Nc1cc2c(=O)c(C(=O)O)cn(C3CC3)c2cc1N1CCSC1`, the minimal inhibitory concentration (MIC) was 128 µg/mL (≈ 386 µM).

On to `Nc1cc2c(=O)c(C(=O)O)cn(C3CC3)c2cc1N1CCC(N)C1` (configuration not stated), for which the MIC is 128 µg/mL (≈ 390 µM).

`CC1CN(c2cc3c(cc2N)c(=O)c(C(=O)O)cn3C2CC2)CCN1` (configuration not stated): the MIC is 16 µg/mL (≈ 46.7 µM).

In another test the test system is Enterobacter cloacae. The test can be described thus: Tested in vitro for inhibitory activity against gram negative bacteria Enterobacter cloacae OMNFI 174 strain. Type of test: functional.
For `NCCSc1cc2c(cc1N)c(=O)c(C(=O)O)cn2C1CC1`, it took 128 µg/mL (≈ 401 µM) to inhibit growth (MIC).

`Nc1cc2c(=O)c(C(=O)O)cn(C3CC3)c2cc1N1CCSC1` came in with an MIC of 16 µg/mL (≈ 48.3 µM).

As to `Nc1cc2c(=O)c(C(=O)O)cn(C3CC3)c2cc1N1CCC(N)C1` (configuration not stated), the MIC came to 16 µg/mL (≈ 48.7 µM).

In turn, `CC1CN(c2cc3c(cc2N)c(=O)c(C(=O)O)cn3C2CC2)CCN1` (configuration not stated) returned a minimum inhibitory concentration (MIC) of 0.25 µg/mL (≈ 0.73 µM).

Another test concerns Escherichia coli. The test can be described thus: Tested in vitro for inhibitory activity against gram negative bacteria Escherichia coli ATCC 8739 strain. Type of test: functional.
For `NCCSc1cc2c(cc1N)c(=O)c(C(=O)O)cn2C1CC1`, the MIC was 1 µg/mL (≈ 3.13 µM).

`Nc1cc2c(=O)c(C(=O)O)cn(C3CC3)c2cc1N1CCSC1`: the MIC is 0.5 µg/mL (≈ 1.51 µM).

`Nc1cc2c(=O)c(C(=O)O)cn(C3CC3)c2cc1N1CCC(N)C1` (configuration not stated) yielded an MIC of 1 µg/mL (≈ 3.05 µM).

Take `CC1CN(c2cc3c(cc2N)c(=O)c(C(=O)O)cn3C2CC2)CCN1` (configuration not stated): inhibition of growth (MIC) required 0.03 µg/mL (≈ 0.0876 µM).

The next test deals with Escherichia coli. The test is described as follows: Tested in vitro for inhibitory activity against gram negative bacteria Escherichia coli ISF 432 strain. Type of test: functional.
`NCCSc1cc2c(cc1N)c(=O)c(C(=O)O)cn2C1CC1` returned an MIC of 1 µg/mL (≈ 3.13 µM).

`Nc1cc2c(=O)c(C(=O)O)cn(C3CC3)c2cc1N1CCSC1` gave an MIC of 1 µg/mL (≈ 3.02 µM).

Consider `Nc1cc2c(=O)c(C(=O)O)cn(C3CC3)c2cc1N1CCC(N)C1` (configuration not stated), for which the minimum inhibitory concentration (MIC) was 0.5 µg/mL (≈ 1.52 µM).

As to `CC1CN(c2cc3c(cc2N)c(=O)c(C(=O)O)cn3C2CC2)CCN1` (configuration not stated), the MIC came to 0.03 µg/mL (≈ 0.0876 µM).

The test system of the next test is Shigella. The test can be described thus: Tested in vitro for inhibitory activity against gram negative bacteria Shigella enteritidis. Type of test: functional.
Compound `NCCSc1cc2c(cc1N)c(=O)c(C(=O)O)cn2C1CC1` came in with a minimum inhibitory concentration (MIC) of 128 µg/mL (≈ 401 µM).

`Nc1cc2c(=O)c(C(=O)O)cn(C3CC3)c2cc1N1CCSC1` displayed an MIC of 32 µg/mL (≈ 96.6 µM).

`Nc1cc2c(=O)c(C(=O)O)cn(C3CC3)c2cc1N1CCC(N)C1` (configuration not stated) showed an MIC of 16 µg/mL (≈ 48.7 µM).

Compound `CC1CN(c2cc3c(cc2N)c(=O)c(C(=O)O)cn3C2CC2)CCN1` (configuration not stated) had an MIC of 0.25 µg/mL (≈ 0.73 µM).

The subject of another test is Staphylococcus epidermidis. The test is described as follows: Tested in vitro for inhibitory activity against gram positive bacteria Staphylococcus epidermidis HCF berset C strain. Type of test: functional.
On to `NCCSc1cc2c(cc1N)c(=O)c(C(=O)O)cn2C1CC1`, for which inhibition of growth (MIC) required 128 µg/mL (≈ 401 µM).

For the compound `Nc1cc2c(=O)c(C(=O)O)cn(C3CC3)c2cc1N1CCSC1`, the MIC was determined as 64 µg/mL (≈ 193 µM).

In turn, `Nc1cc2c(=O)c(C(=O)O)cn(C3CC3)c2cc1N1CCC(N)C1` (configuration not stated) showed a minimal inhibitory concentration (MIC) of 128 µg/mL (≈ 390 µM).

`CC1CN(c2cc3c(cc2N)c(=O)c(C(=O)O)cn3C2CC2)CCN1` (configuration not stated) yielded an MIC of 4 µg/mL (≈ 11.7 µM).

The subject of another test is Staphylococcus aureus. The test is described as follows: Tested in vitro for inhibitory activity against gram positive bacteria Staphylococcus aureus ATCC 6538 strain. Type of test: functional.
Compound `NCCSc1cc2c(cc1N)c(=O)c(C(=O)O)cn2C1CC1` displayed a minimum inhibitory concentration (MIC) of 128 µg/mL (≈ 401 µM).

For `Nc1cc2c(=O)c(C(=O)O)cn(C3CC3)c2cc1N1CCSC1`, the lowest concentration to inhibit growth (MIC) was 64 µg/mL (≈ 193 µM).

With `Nc1cc2c(=O)c(C(=O)O)cn(C3CC3)c2cc1N1CCC(N)C1` (configuration not stated), the minimum inhibitory concentration (MIC) amounted to 128 µg/mL (≈ 390 µM).

In turn, `CC1CN(c2cc3c(cc2N)c(=O)c(C(=O)O)cn3C2CC2)CCN1` (configuration not stated) yielded a minimum inhibitory concentration (MIC) of 16 µg/mL (≈ 46.7 µM).

Another test relates to Staphylococcus aureus. The test is described as follows: Tested in vitro for inhibitory activity against gram positive bacteria Staphylococcus aureus MPR 5 strain. Type of test: functional.
As to `NCCSc1cc2c(cc1N)c(=O)c(C(=O)O)cn2C1CC1`, the MIC is 128 µg/mL (≈ 401 µM).

Take `Nc1cc2c(=O)c(C(=O)O)cn(C3CC3)c2cc1N1CCSC1`: the MIC came out at 128 µg/mL (≈ 386 µM).

`Nc1cc2c(=O)c(C(=O)O)cn(C3CC3)c2cc1N1CCC(N)C1` (configuration not stated) showed a minimal inhibitory concentration (MIC) of 128 µg/mL (≈ 390 µM).

Compound `CC1CN(c2cc3c(cc2N)c(=O)c(C(=O)O)cn3C2CC2)CCN1` (configuration not stated) registered an MIC of 16 µg/mL (≈ 46.7 µM).

For another test, the system named is Enterococcus faecalis. The test is described as follows: Tested in vitro for inhibitory activity against gram positive bacteria Streptococcus faecalis LEP Br strain. Type of test: functional.
`NCCSc1cc2c(cc1N)c(=O)c(C(=O)O)cn2C1CC1` yielded a minimal inhibitory concentration (MIC) of 128 µg/mL (≈ 401 µM).

Consider `Nc1cc2c(=O)c(C(=O)O)cn(C3CC3)c2cc1N1CCSC1`, for which the lowest concentration to inhibit growth (MIC) was 128 µg/mL (≈ 386 µM).

For the compound `Nc1cc2c(=O)c(C(=O)O)cn(C3CC3)c2cc1N1CCC(N)C1` (configuration not stated), the minimal inhibitory concentration (MIC) is 128 µg/mL (≈ 390 µM).

Consider `CC1CN(c2cc3c(cc2N)c(=O)c(C(=O)O)cn3C2CC2)CCN1` (configuration not stated), for which the MIC turned out to be 32 µg/mL (≈ 93.5 µM).

Another test has as its system Staphylococcus epidermidis. The test can be described thus: Tested in vitro for inhibitory activity against gram positive bacteria Staphylococcus epidermidis CPHL A2 strain. Type of test: functional.
As for `NCCSc1cc2c(cc1N)c(=O)c(C(=O)O)cn2C1CC1`, the lowest concentration to inhibit growth (MIC) was 128 µg/mL (≈ 401 µM).

`Nc1cc2c(=O)c(C(=O)O)cn(C3CC3)c2cc1N1CCSC1` returned an MIC of 64 µg/mL (≈ 193 µM).

In turn, `Nc1cc2c(=O)c(C(=O)O)cn(C3CC3)c2cc1N1CCC(N)C1` (configuration not stated) returned a minimal inhibitory concentration (MIC) of 128 µg/mL (≈ 390 µM).

Regarding `CC1CN(c2cc3c(cc2N)c(=O)c(C(=O)O)cn3C2CC2)CCN1` (configuration not stated), the minimal inhibitory concentration (MIC) turned out to be 4 µg/mL (≈ 11.7 µM).

The test system of the next test is Klebsiella pneumoniae. The test is described as follows: Tested in vitro for inhibitory activity against gram negative bacteria Klebsiella pneumoniae ATCC 10031 strain. Type of test: functional.
`NCCSc1cc2c(cc1N)c(=O)c(C(=O)O)cn2C1CC1` yielded an MIC of 2 µg/mL (≈ 6.26 µM).

As to `Nc1cc2c(=O)c(C(=O)O)cn(C3CC3)c2cc1N1CCSC1`, the lowest concentration to inhibit growth (MIC) was 0.5 µg/mL (≈ 1.51 µM).

The compound `Nc1cc2c(=O)c(C(=O)O)cn(C3CC3)c2cc1N1CCC(N)C1` (configuration not stated) registered a minimum inhibitory concentration (MIC) of 1 µg/mL (≈ 3.05 µM).

`CC1CN(c2cc3c(cc2N)c(=O)c(C(=O)O)cn3C2CC2)CCN1` (configuration not stated) showed an MIC of 0.03 µg/mL (≈ 0.0876 µM).

The next test has as its system Providencia stuartii. The test is described as follows: Tested in vitro for inhibitory activity against gram negative bacteria Providencia stuartii CNUR 5 strain. Type of test: functional.
Turning to `NCCSc1cc2c(cc1N)c(=O)c(C(=O)O)cn2C1CC1`, the MIC is 128 µg/mL (≈ 401 µM).

Regarding `Nc1cc2c(=O)c(C(=O)O)cn(C3CC3)c2cc1N1CCSC1`, the MIC was found to be 128 µg/mL (≈ 386 µM).

For the compound `Nc1cc2c(=O)c(C(=O)O)cn(C3CC3)c2cc1N1CCC(N)C1` (configuration not stated), the minimal inhibitory concentration (MIC) was 128 µg/mL (≈ 390 µM).

`CC1CN(c2cc3c(cc2N)c(=O)c(C(=O)O)cn3C2CC2)CCN1` (configuration not stated) returned a minimum inhibitory concentration (MIC) of 16 µg/mL (≈ 46.7 µM).

The subject of another test is Pseudomonas aeruginosa. The test can be described thus: Tested in vitro for inhibitory activity against gram negative bacteria Pseudomonas aeruginosa ATCC 9027 strain. Type of test: functional.
In turn, `NCCSc1cc2c(cc1N)c(=O)c(C(=O)O)cn2C1CC1` yielded a minimum inhibitory concentration (MIC) of 128 µg/mL (≈ 401 µM).

`Nc1cc2c(=O)c(C(=O)O)cn(C3CC3)c2cc1N1CCSC1` showed an MIC of 128 µg/mL (≈ 386 µM).

For the compound `Nc1cc2c(=O)c(C(=O)O)cn(C3CC3)c2cc1N1CCC(N)C1` (configuration not stated), the MIC is 16 µg/mL (≈ 48.7 µM).

On to `CC1CN(c2cc3c(cc2N)c(=O)c(C(=O)O)cn3C2CC2)CCN1` (configuration not stated), for which the MIC turned out to be 2 µg/mL (≈ 5.84 µM).
